These results are taken from ChEMBL document CHEMBL1926527, “Pharmacophore insights into rpoB gene mutations in Mycobacterium tuberculosis rifampicin resistant isolates” (2012).

Each structure is given as a SMILES string. In brackets after ≈: the same amount, converted by molar mass.

Common to all, as to type: functional
Test [1] concerns Mycobacterium tuberculosis. Description: Antimycobacterial activity against Mycobacterium tuberculosis isolate 311 expressing rpoB mutant gene by resazurin microtiter assay.
Test [2] deals with Mycobacterium tuberculosis. Nature of the test: Antimycobacterial activity against Mycobacterium tuberculosis isolate 344 expressing rpoB Ser522Leu mutant gene by resazurin microtiter assay.
Test [3] concerns Mycobacterium tuberculosis. Nature of the test: Antimycobacterial activity against Mycobacterium tuberculosis isolate 309 expressing rpoB His526Arg mutant gene by resazurin microtiter assay. (In general: Alamar Blue is a resazurin reagent that responds to reducing activity.)
The test system of test [4] is Mycobacterium tuberculosis. Description: Antimycobacterial activity against Mycobacterium tuberculosis isolate 364 expressing rpoB Ser522Leu mutant gene by resazurin microtiter assay.
Test [5] deals with Mycobacterium tuberculosis. Description: Antimycobacterial activity against Mycobacterium tuberculosis isolate 349 expressing rpoB mutant gene by resazurin microtiter assay.
Test [6] deals with Mycobacterium tuberculosis. Description: Antimycobacterial activity against Mycobacterium tuberculosis isolate 80,014 expressing rpoB Arg529Lys and Leu530Met mutant gene by resazurin microtiter assay.
Test [7] deals with Mycobacterium tuberculosis. Description: Antimycobacterial activity against Mycobacterium tuberculosis isolate 308 expressing rpoB His526Asp mutant gene by resazurin microtiter assay.
For test [8], the system named is Mycobacterium tuberculosis. Description: Antimycobacterial activity against Mycobacterium tuberculosis isolate 307 expressing rpoB Ser531Leu mutant gene by resazurin microtiter assay.
For test [9], the system named is Mycobacterium tuberculosis. Nature of the test: Antimycobacterial activity against Mycobacterium tuberculosis isolate 352 expressing rpoB Asp516Leu and Phe514Phe double mutant gene by resazurin microtiter assay.
For test [10], the system named is Mycobacterium tuberculosis. Description: Antimycobacterial activity against multidrug-resistant Mycobacterium tuberculosis clinical isolate obtained from tuberculosis patient infected in BALB/c mouse assessed as decrease in surface area affected by pneumonia in lung at 5 mg/kg, po administered daily for 2 months measured after 2 months. The arrangement: scale not given: the % may be the effect or the level left.

In test [11] the test system is Mycobacterium tuberculosis. Nature of the test: Antimycobacterial activity against Mycobacterium tuberculosis isolate 343 expressing rpoB Asp516Val mutant gene by resazurin microtiter assay.
Test [12] has as its system Mycobacterium tuberculosis. Description: Antimycobacterial activity against Mycobacterium tuberculosis isolate 363 expressing rpoB Asp516Val mutant gene by resazurin microtiter assay.
Test [13] relates to Mycobacterium tuberculosis. Description: Antimycobacterial activity against multidrug-resistant Mycobacterium tuberculosis clinical isolate obtained from tuberculosis patient infected in BALB/c mouse assessed as decrease in bacterial burden in lung at 5 mg/kg, po administered daily for 2 months measured after 1 month relative to untreated control.
For test [14], the system named is Mycobacterium tuberculosis. Nature of the test: Antimycobacterial activity against multidrug-resistant Mycobacterium tuberculosis clinical isolate obtained from tuberculosis patient infected in BALB/c mouse assessed as decrease in bacterial burden in lung at 5 mg/kg, po administered daily for 2 months measured after 2 months. The arrangement: scale not given: the % may be the effect or the level left.

On to `C=CCCCCCCCCC(=O)N1C2=C3NC(=O)/C(C)=C\C=C\[C@H](C)[C@H](O)[C@@H](C)[C@@H](O)[C@@H](C)[C@H](OC(C)=O)[C@H](C)[C@@H](OC)/C=C/O[C@@]4(C)Oc5c(C)c(O)c(c(c5C4=O)C2=NC12CCN(CC(C)C)CC2)C3=O`, for which the MIC (as a rule, the lowest concentration found to suppress growth) in test [1] is more than 2 µg/mL; in test [2], 0.5 µg/mL (≈ 0.493 µM); in test [3], 1 µg/mL (≈ 0.987 µM); in test [4] it was 2 µg/mL (≈ 1.97 µM); in test [5], more than 2 µg/mL; in [6], 0.5 µg/mL (≈ 0.493 µM). The MIC in [7] was more than 2 µg/mL; in test [8], more than 2 µg/mL; in test [9], 0.25 µg/mL (≈ 0.247 µM); in test [11], 2 µg/mL (≈ 1.97 µM); in [12] it was 0.25 µg/mL (≈ 0.247 µM). In addition, the figures for the Activity in test [10] and in [14] were 15% and 50%, respectively. For the same molecule, the “fold change (FC)” value in test [13] is reported as more than 3.
For `CO[C@H]1/C=C/O[C@@]2(C)Oc3c(C)c(O)c4c(c3[C@H]2O)C2=NC3(CCN(CC(C)C)CC3)N(C(C)=O)C2=C(NC(=O)/C(C)=C\C=C\[C@H](C)[C@H](O)[C@@H](C)[C@@H](O)[C@@H](C)[C@H](OC(C)=O)[C@@H]1C)C4=O`, the MIC in [1] is more than 2 µg/mL; in [2], 0.5 µg/mL (≈ 0.561 µM); in test [3], 2 µg/mL (≈ 2.24 µM); in test [4], more than 2 µg/mL; in [5], more than 2 µg/mL; in test [6], 0.5 µg/mL (≈ 0.561 µM). Moreover, the minimal inhibitory concentration (MIC) in test [7] was more than 2 µg/mL; in [8] it was more than 2 µg/mL; in test [9] it was more than 2 µg/mL; in [11], more than 2 µg/mL; in test [12] it was 0.5 µg/mL (≈ 0.561 µM).
With `CO[C@H]1/C=C/O[C@@]2(C)Oc3c(C)c(O)c4c(c3C2=O)C2=NC3(CCN(CC(C)C)CC3)NC2=C(NC(=O)/C(C)=C\C=C\[C@H](C)[C@H](O)[C@@H](C)[C@@H](O)[C@@H](C)[C@H](O)[C@@H]1C)C4=O`, the MIC was more than 2 µg/mL in [1]; 2 µg/mL (≈ 2.48 µM) in [2]; 0.25 µg/mL (≈ 0.311 µM) in test [3]; more than 2 µg/mL in test [4]; more than 2 µg/mL in test [5]; 1 µg/mL (≈ 1.24 µM) in test [6]. Besides, the minimum inhibitory concentration (MIC) is more than 2 µg/mL in test [7]; more than 2 µg/mL in [8]; 0.12 µg/mL (≈ 0.149 µM) in [9]; more than 2 µg/mL in [11]; 1 µg/mL (≈ 1.24 µM) in [12].
With `CO[C@H]1/C=C/O[C@@]2(C)Oc3c(C)c(O)c4c(c3C2=O)C2=NC3(CCN(CC(C)C)CC3)N(C(C)=O)C2=C(NC(=O)/C(C)=C\C=C\[C@H](C)[C@H](O)[C@@H](C)[C@@H](O)[C@@H](C)[C@H](OC(C)=O)[C@@H]1C)C4=O`, the MIC in test [1] was more than 2 µg/mL; in test [2] it was 0.06 µg/mL (≈ 0.0675 µM); in test [3], 0.25 µg/mL (≈ 0.281 µM); in [4], 0.25 µg/mL (≈ 0.281 µM); in test [5], 2 µg/mL (≈ 2.25 µM); in test [6], 0.25 µg/mL (≈ 0.281 µM). In addition, the MIC in test [7] is more than 2 µg/mL; in test [8], 2 µg/mL (≈ 2.25 µM); in test [9], 1 µg/mL (≈ 1.12 µM); in test [11], more than 2 µg/mL; in [12] it was 0.06 µg/mL (≈ 0.0675 µM). The Activity was determined as 30% in test [10] and 50% in [14]. Further, in [13], the “fold change (FC)” value is more than 3.
As for `CCCCCCCCCCCCCCCC(=O)N1C2=C3NC(=O)/C(C)=C\C=C\[C@H](C)[C@H](O)[C@@H](C)[C@@H](O)[C@@H](C)[C@H](OC(C)=O)[C@H](C)[C@@H](OC)/C=C/O[C@@]4(C)Oc5c(C)c(O)c(c(c5C4=O)C2=NC12CCN(CC(C)C)CC2)C3=O`, the MIC in test [1] was more than 2 µg/mL; in test [2], more than 2 µg/mL; in test [3], more than 2 µg/mL; in test [4], more than 2 µg/mL; in test [5] it was more than 2 µg/mL; in [6], 2 µg/mL (≈ 1.84 µM). For the same molecule, the MIC in test [7], in test [8], in test [9], in test [11] and in test [12] was more than 2 µg/mL throughout.
As for `CO[C@H]1/C=C/O[C@@]2(C)Oc3c(C)c(O)c4c(c3C2=O)C2=NC3(CCN(CC(C)C)CC3)NC2=C(NC(=O)/C(C)=C\C=C\[C@H](C)[C@H](O)[C@@H](C)[C@@H](O)[C@@H](C)[C@H](OC(C)=O)[C@@H]1C)C4=O` [RIFABUTIN], the MIC was determined as 2 µg/mL (≈ 2.36 µM) in test [1]; 0.06 µg/mL (≈ 0.0708 µM) in [2]; 0.12 µg/mL (≈ 0.142 µM) in [3]; 0.25 µg/mL (≈ 0.295 µM) in test [4]; 1 µg/mL (≈ 1.18 µM) in test [5]; 0.12 µg/mL (≈ 0.142 µM) in [6]. Besides, the MIC in test [7] was more than 2 µg/mL; in test [8] it was 2 µg/mL (≈ 2.36 µM); in test [9], less than 0.06 µg/mL; in test [11], 1 µg/mL (≈ 1.18 µM); in test [12] it was 0.06 µg/mL (≈ 0.0708 µM).
As to `CO[C@H]1/C=C/O[C@@]2(C)Oc3c(C)c(O)c4c(c3[C@H]2O)C2=NC3(CCN(CC(C)C)CC3)NC2=C(NC(=O)/C(C)=C\C=C\[C@H](C)[C@H](O)[C@@H](C)[C@@H](O)[C@@H](C)[C@H](O)[C@@H]1C)C4=O`, the MIC in test [1] was 2 µg/mL (≈ 2.48 µM); in [2] it was more than 2 µg/mL; in test [3], 2 µg/mL (≈ 2.48 µM); in [4], more than 2 µg/mL; in test [5], more than 2 µg/mL; in test [6] it was 2 µg/mL (≈ 2.48 µM). The MIC was more than 2 µg/mL in test [7]; more than 2 µg/mL in test [8]; 0.5 µg/mL (≈ 0.62 µM) in [9]; more than 2 µg/mL in test [11]; more than 2 µg/mL in test [12].
As to `CO[C@H]1/C=C/O[C@@]2(C)Oc3c(C)c(O)c4c(O)c(c(/C=N/N5CCN(C)CC5)c(O)c4c3C2=O)NC(=O)/C(C)=C\C=C\[C@H](C)[C@H](O)[C@@H](C)[C@@H](O)[C@@H](C)[C@H](OC(C)=O)[C@@H]1C` [RIFAMPIN], the MIC was more than 2 µg/mL in [1]; more than 2 µg/mL in [2]; 0.06 µg/mL (≈ 0.0729 µM) in [3]; more than 2 µg/mL in [4]; more than 2 µg/mL in test [5]; 2 µg/mL (≈ 2.43 µM) in test [6]. Further, the MIC in test [7], in test [8], in test [9], in test [11] and in [12] was more than 2 µg/mL each time.
